Data on four molecules can be found in patent publication US20230057847A1, “GLP2 RECEPTOR AGONISTS AND METHODS OF USE” (The Scripps Research Institute, priority 2019, published 2023).

Data set [1] can be described thus: Pharmacokinetics of peptides in mice (plasma levels by GLP-2R cell based reporter assay). Particulars: mouse, in vivo. For orientation: A reporter such as luciferase makes a cellular process visible.
Description: Briefly, female CD-1 mice (n=4 per group) from Charles River Laboratory were fasted overnight and administrated with 100 μL of each peptide in phosphate buffered saline by intravenous (iv) or subcutaneous (sc) route. Food was provided to mice immediately after bleeding at 30 min. […] The resulting supernatant plasma were then stored at −80° C. for peptide concentration determination. The concentrations of peptides in plasma at each time point were determined by in vitro cell based activity assay. […] At the same time, the same peptides were used to obtain standard curves and parameters for Bottom, Top, EC50, and Hill slope. Relative light unit (RLU) for each plasma sample was used to calculate the peptide concentrations in plasma (nmol/L), using parameters derived from the standard curve (RLU=Bottom+(Top−Bottom)/(1+10((log EC50−Conc)Hill slope)). Peptide concentrations in plasma were obtained and plotted against time points to obtain in vivo half-life of each peptide, using WinNonLin Phoenix software (Pharsight Corp, St. Louis, Mo.).
Data set [2] deals with cyno monkey GLP2R (cyno monkey) (UniProt G1E7B0). The data set can be described thus: cell-based or functional assay.
The target in data set [3] is mouse GLP2R (mouse) (UniProt Q5IXF8). Description: cell-based or functional assay.
Data set [4] deals with GCGR. The data set can be described thus: cell-based or functional assay.
Data set [5] addresses GIPR. Description: cell-based or functional assay.
Data set [6] addresses GLP-1R. Description: cell-based or functional assay.
Data set [7] addresses T1, mouse GLP2R (Mus musculus, UniProt Q5IXF8).
T1 sequence (Q5IXF8 1-512): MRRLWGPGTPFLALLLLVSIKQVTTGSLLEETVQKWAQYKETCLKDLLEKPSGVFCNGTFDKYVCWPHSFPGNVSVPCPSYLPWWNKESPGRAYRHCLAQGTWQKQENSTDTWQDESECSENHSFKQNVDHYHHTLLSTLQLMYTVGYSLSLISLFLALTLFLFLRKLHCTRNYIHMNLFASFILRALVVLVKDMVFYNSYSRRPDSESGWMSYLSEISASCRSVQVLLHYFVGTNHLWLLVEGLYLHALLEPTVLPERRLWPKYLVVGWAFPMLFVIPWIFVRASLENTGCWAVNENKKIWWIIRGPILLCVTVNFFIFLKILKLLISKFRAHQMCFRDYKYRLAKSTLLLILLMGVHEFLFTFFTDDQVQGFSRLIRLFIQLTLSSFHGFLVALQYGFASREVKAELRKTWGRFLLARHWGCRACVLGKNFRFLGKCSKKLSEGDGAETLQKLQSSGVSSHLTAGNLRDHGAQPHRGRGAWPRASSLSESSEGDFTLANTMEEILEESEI
The data set can be described thus: In vitro potency on mouse GLP2R (cAMP, 665/615 ratio). Particulars: read-out: mGLP-2R IC50. The data set is classed as cell-based.
Description: To determine the potency of the long-acting GLP2R agonists against mouse GLP2R.

Data set [8] addresses T2, cyno monkey GLP2R (Macaca fascicularis, UniProt G1E7B0).
T2 sequence (G1E7B0 1-553): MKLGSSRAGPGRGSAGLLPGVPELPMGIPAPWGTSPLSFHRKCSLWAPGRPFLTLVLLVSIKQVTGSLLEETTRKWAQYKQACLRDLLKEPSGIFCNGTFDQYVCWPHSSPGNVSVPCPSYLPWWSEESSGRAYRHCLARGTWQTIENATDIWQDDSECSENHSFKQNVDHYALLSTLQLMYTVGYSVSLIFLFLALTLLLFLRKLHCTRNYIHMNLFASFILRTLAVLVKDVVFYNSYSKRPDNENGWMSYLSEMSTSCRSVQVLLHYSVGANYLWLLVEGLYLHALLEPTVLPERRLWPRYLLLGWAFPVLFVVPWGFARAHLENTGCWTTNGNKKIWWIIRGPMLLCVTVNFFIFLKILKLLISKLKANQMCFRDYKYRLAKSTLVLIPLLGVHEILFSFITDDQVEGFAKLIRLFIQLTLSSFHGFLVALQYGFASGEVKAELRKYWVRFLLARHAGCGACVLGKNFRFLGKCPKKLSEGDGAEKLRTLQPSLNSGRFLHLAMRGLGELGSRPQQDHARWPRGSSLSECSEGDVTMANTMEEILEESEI
Description: In vitro potency on cyno monkey GLP2R (665/615 ratio). Type of data set: cell-based.

Data set [9] concerns mouse model of chronic colitis. Description: Chronic DSS-induced colitis in C57BL/6 mice (GLP2-2G-1-EX4-L5A). The data set is classed as in vivo. Particulars: 0.1 and 0.3 mg/kg SC QD 7 days, teduglutide 0.3 mg/kg SC QD. On the procedure: Animals were treated daily for 7 days during the last DSS-induction cycle. Treatment was administered either subcutaneously (S) or intraperitoneally (IP) either once daily (QD) or twice daily (BID).
Bodyweight was monitored 3 times a week. Pharmacokinetic collection occurred 3 and 4 days prior to necropsy. At day 33, a necropsy was performed, and measurements were taken. These measurement included collecting terminal bleed; dissecting out the small intestine; measuring the length and weight of the small intestine; and recording the length and weight of the empty large intestine.

Data set [10] relates to chronic DSS-induced colitis model. Description: Chronic DSS-induced colitis in C57BL/6 mice (GLP2-2G-10Nle-1-Ex4-L5A). Type of data set: in vivo. Conditions: teduglutide 0.5 mg/kg BID. On the procedure:
Treatment was administered either subcutaneously (S) or intraperitoneally (IP) either once daily (QD) or twice daily (BID). […] Bodyweight was monitored 3 times a week. […] At day 33, a necropsy was performed, and measurements were taken. These measurement included collecting terminal bleed; dissecting out the small intestine; measuring the length and weight of the small intestine; and recording the length and weight of the empty large intestine.

Data set [11] has as its system mouse model of environmental enteric dysfunction (EED). The data set can be described thus: Weaning undernutrition mouse model of environmental enteric dysfunction (EED). The data set is classed as in vivo, mice. On the procedure:
A weaning undernutrition model was used to assess the ability of GLP2-2G-10Nle-1K-EX4-K5 to treat environmental enteric dysfunction (EED). All dams were placed on an isocaloric Northeast Brazil (Regional Basic Diet—RBD), which was moderately deficient in protein, fat and minerals when their pups were 10 days old. At weaning (3 weeks of age), pups were placed on either a standard control diet (CD) or continued on RBD. At 4 weeks of age, weanlings were given drug or placebo (0.1 mg/kg formulated in PBS (vehicle)) once a day subcutaneously for 2-3 weeks. Bodyweight and food consumption were measured twice weekly. Stool was collected at weaning, 6 weeks of age, and 8 weeks of age for calorimetry and microbiome. Oral FITC-dextran was used as a measurement of barrier function. At 6 weeks of age, mice were euthanized, and jejunal tissue was collected for morphology, immunohistochemistry, and for chamber analysis of transmucosal resistance and permeability.

Data set [12] concerns mouse model of acute colitis. Conditions: in vivo.
Description: (§1) Each group contained 6 mice, except for group A, which contained 4.
(§2) The body weight was monitored daily. If animals lost more than 20% of their bodyweight, they were euthanized. […] On day 11, animals were euthanized, and a necropsy was performed. The terminal bleed was collected into a heparinized collection tube and processed into plasma. The small intestine and colon were collected to measure weight and length. GI tissues were collected for histology.
Data set [13] concerns mouse model of acute colitis. Description: DSS-induced acute colitis in C57BL/6 mice (GLP2-2G-10Nle-1K-EX4-K5).
Description: as §1, §2

For the molecule `CC[C@H](C)[C@@H]1NC(=O)[C@H](Cc2ccccc2)NC(=O)[C@H](CC(=O)O)NC(=O)[C@H](CCCNC(=N)N)NC(=O)[C@H](C)NC(=O)[C@H](C)NC(=O)[C@@H](NC(=O)[C@H](CC(N)=O)NC(=O)[C@H](CC(=O)O)NC(=O)[C@H](CC(C)C)NC(=O)[C@@H](NC(=O)[C@@H](NC(=O)[C@H](CC(N)=O)NC(=O)[C@H](CCSC)NC(=O)[C@H](CCC(=O)O)NC(=O)[C@H](CC(=O)O)NC(=O)[C@H](CO)NC(=O)[C@H](Cc2ccccc2)NC(=O)[C@H](CO)NC(=O)CNC(=O)[C@H](CC(=O)O)NC(=O)CNC(=O)[C@@H](N)Cc2c[nH]cn2)[C@@H](C)O)[C@@H](C)CC)CCCCNC(=O)CN(C(=O)CCNC(=O)CCOCCOCCNC(=O)CCOCCOCCNC(=O)CC[C@H](NC(=O)CCCCCCCCCCCCCCCCC(=O)O)C(=O)O)CC(=O)NCCCC[C@@H](C(=O)N[C@@H](Cc2c[nH]c3ccccc23)C(=O)N[C@@H](CC(C)C)C(=O)N[C@H](C(=O)N[C@@H](CCC(N)=O)C(=O)N[C@H](C(=O)N[C@@H](CCCCN)C(=O)N[C@H](C(=O)N[C@H](C(=O)N[C@@H](CC(=O)O)C(=O)N2CCC[C@H]2C(=O)N[C@@H](CO)C(=O)N[C@@H](CO)C(=O)NCC(=O)N[C@@H](C)C(=O)N2CCC[C@H]2C(=O)N2CCC[C@H]2C(=O)N2CCC[C@H]2C(=O)N[C@@H](CO)C(N)=O)[C@@H](C)O)[C@@H](C)CC)[C@@H](C)O)[C@@H](C)CC)NC1=O` [Conjugate 17], in data set [1] (10 nmol/kg, read-out: Mouse T½/h (converted)), the half-life was 8.53 ± 0.044 h. Further, the clearance in [1] (CD1 female mice, 10 nmol/kg iv or sc, read-out: Mouse CL/(mL/h/kg) (converted)) was 14.4 mL/h/kg.

With Teduglutide (peptide), the EC50 [nM] (ratio of 665 to 615) in data set [2] came out at 0.009 nM. For the same molecule, the IC50 [nM] (665/615 ratio, free cAMP) in data set [3] was determined as 0.07 nM.

In the case of GLP-2 (ligand), the IC50 [nM] (665/615 ratio, free cAMP) in [4], in data set [5] and in data set [6] was above 500 nM in each case.

A word on the IC50: it is the concentration that gives 50% inhibition. One may read the EC50 as the midpoint of the concentration-response curve. Regarding `CC[C@H](C)[C@H](NC(=O)[C@H](Cc1ccccc1)NC(=O)[C@H](CC(=O)O)NC(=O)[C@H](CCCNC(=N)N)NC(=O)[C@H](C)NC(=O)[C@H](C)NC(=O)[C@H](CC(C)C)NC(=O)[C@H](CC(N)=O)NC(=O)[C@H](CC(=O)O)NC(=O)[C@H](CC(C)C)NC(=O)[C@@H](NC(=O)[C@@H](NC(=O)[C@H](CC(N)=O)NC(=O)[C@H](CCSC)NC(=O)[C@H](CCC(=O)O)NC(=O)[C@H](CC(=O)O)NC(=O)[C@H](CO)NC(=O)[C@H](Cc1ccccc1)NC(=O)[C@H](CO)NC(=O)CNC(=O)[C@H](CC(=O)O)NC(=O)CNC(=O)[C@@H](N)Cc1c[nH]cn1)[C@@H](C)O)[C@@H](C)CC)C(=O)N[C@@H](CC(N)=O)C(=O)N[C@@H](Cc1c[nH]c2ccccc12)C(=O)N[C@@H](CC(C)C)C(=O)N[C@H](C(=O)N[C@@H](CCC(N)=O)C(=O)N[C@H](C(=O)N[C@@H](CCCCN)C(=O)N[C@H](C(=O)N[C@H](C(=O)N[C@@H](CC(=O)O)C(=O)O)[C@@H](C)O)[C@@H](C)CC)[C@@H](C)O)[C@@H](C)CC` [Teduglutide, teduglutide, reference compound], the IC50 in [7] turned out to be 0.07 nM. The concentration for a half-maximal effect (EC50) in data set [8] was 0.009 nM. For the same molecule, the bodyweight loss result in [9] is listed as “did not show the same loss in percent of bodyweight”. Further, the colon length entry in data set [10] (doses of 0.1 mg/kg and higher, vs group B) is on record as “significantly increased”; in [13] (groups D-F (K5 0.3, 1 mg/kg; teduglutide 0.5 mg/kg) vs group B), “significantly increased”. Moreover, in data set [10] (doses of 0.1 mg/kg and higher, vs untreated), the small intestine length entry is “significant increases”. Further, in data set [10] (doses of 0.3 mg/kg or higher, vs untreated), the colon weight result is recorded as “increased”. Also, the “intestinal permeability (FITC-dextran)” value in data set [11] (CD females vs untreated) is reported as “significant decreases in permeability”; in [11] (CD males vs untreated) it was “trend towards decreased permeability”; in data set [11] (RBD females or RBD males vs untreated) it was “did not significantly affect the permeability”. The “small intestine wet body weight/body weight” value in data set [11] (CD females vs untreated), in data set [11] (CD males vs untreated) and in [11] (RBD males vs untreated) was “significant increase” throughout. For the same molecule, the crypt depths result in data set [11] (CD males vs untreated) is listed as “longer crypt depths”. For the same molecule, the villus heights result in [11] (CD males vs untreated) is “significantly longer villus heights”. Further, in data set [11] (animals weaned to CD and to RBD diet, vs untreated), the “length of the small intestine” value is “significant increase”. The weight gain entry in data set [11] (male and female RBD mice weaned to CD, 0.1 mg/kg SC once a day) is reported as “trends towards greater weight gain”. For the same molecule, the weight entry in [11] (male and female mice weaned to RBD, 0.1 mg/kg SC once a day) is “trends towards worsening weight”. In addition, the “detectability in plasma after dosing” value in [12] is given as “not detectable after 3 hours post treatment”. Further, the bodyweight over time entry in data set [13] (3% DSS 5 days, daily treatment 11 days, K5 0.1-1 mg/kg SC, teduglutide 0.5 mg/kg SC, cyclosporin 20 mg/kg IP) is given as “did not exhibit significant changes in bodyweight”. The “small intestine length and weight” value in data set [13] (groups C-F vs untreated mice) is “significantly increased”. Further, the villus height entry in data set [13] (jejunum, groups C-F vs untreated mice (groups A-B)) was “significant increase”.
